This is an account of results in patent publication US7306817B2, “Herbal composition for treating CD33+ acute and chronic myeloid leukemia and a method thereof” (Council of Scientific and Industrial Research, priority 2000, dated 2007).

Broadly, the % Inhibition of growth is the relative decrease from the control value, in per cent.

Assay [1] has as its system CD33+ myeloid leukemia cells. Description: Destruction of CD33+ myeloid leukemia cells (patient PBMC) in vitro, viability count and flow cytometry. In kind it is cell-based, human. The note with it: purified compound, varied concentrations, 48 h. How it is done: (§1) Whole blood (10 ml) was drawn from a previously diagnosed CD33+ myeloid leukemic patient and mononuclear cells were separated by Ficoll/hypaqal density gradient centrifugation.
Incubation of PBMC of myeloid leukemia patients with crude Piper betel extract. PBMC (2×10^6/ml) of myeloid leukemia patients were incubated with Piper betel extract (10.0 mg/ml) for 48 hours and then washed and counted for viability.
Incubation of PBMC of myeloid leukemia patients with fraction E in vitro. PBMC (2×10^6/ml) of myeloid leukemia patients were incubated with varied concentrations of fraction E for 48 hours. Cells were then washed and counted for viability.
(§2) Incubation of PBMC of myeloid leukemia patients with purified compound 3-O-p-coumaryl quinic acid in vitro. PBMC (2×10^6/ml) of myeloid leukemia patients were incubated with varied concentrations of purified compound for 48 h. Cells were then washed, and counted for viability.
Flow cytometry of myeloid leukemia cells; Myeloid leukemia cells before and after in vitro incubation with crude Piper betel extract, purified fraction E or purified 3-O-p-coumaryl quinic acid were marked with anti-CD33-FITC and anti-CD13-PE monoclonal antibodies. Cells were then analysed in a flow cytometer (FACS Calibur, Bection Dickinson, USA).

For the next assay, the system named is AML cells. Nature of the assay: Growth inhibition of AML cells in vitro. The format is cell-based, human. The note with it: single fraction, dose 100 μg/ml, 48 hrs. The method, then: as §1, §2
Incubation of myeloid leukemic cells with fractions having retention time 3.60 (fraction-1) and 24.00 min (fraction 9). PBMC of myeloid leukemic patients were incubated with above-mentioned fractions, alone or in combination of the two for 48 hrs. Cells were then washed and counted for viability.

`O=C(C=Cc1ccc(O)cc1)OC1CC(O)(C(=O)O)CC(O)C1O` (centres unmarked) [3-O-p-coumaryl quinic acid]: in assay [1], the “effect on PBMC of CD33+ myeloid leukemia patients (both AML and CML)” value is reported as “destroyed”. For the same compound, the “% Inhibition of growth” value in the assay with AML cells was determined as 54.00%.
